Source: patent US11160796B2, “Anti-androgens for the treatment of non-metastatic castration-resistant prostate cancer” (priority 2017, dated 2021)

Legend:
[1] = system: castration-resistant prostate cancer (CRPC); assay: Phase II clinical trial of apalutamide 240 mg daily in CRPC; format: in vivo, human; conditions: for 12-week PSA declines of >50% or more from baseline (% of patients): preliminary
Description: The primary objective was to assess antitumor activity and PSA kinetics as defined by the Prostate Cancer Clinical Trials Working Group (PCWG2) criteria. […] The median time to PSA progression was not reached for the TN cohort during the preliminary 12-week period, and was 16 weeks in the PA cohort.
The median time to PSA progression was not reached in this observed time period.

LNCaP/AR cells [2] = assay: In vitro model of CRPC (AR-over-expressing prostate cancer cells); format: cell-based
[3] = system: castration-resistant LNCaP/AR-Luc xenograft model; assay: Murine tumor (xenograft) models of CRPC; format: in vivo; conditions: for tumor cell proliferation and apoptosis in vivo: CRPC / mouse xenograft models of prostate cancer
[4] = Preclinical pharmacokinetic profile; format: in vivo
[5] = system: T1, major CYP isoforms other than CYP2C8; assay: Cytochrome P450 inhibition: major isoforms; format: in vitro ADME; conditions: human; the other major isoforms (other than CYP2C8)
T1 construct: IC50; other: the other major isoforms (other than CYP2C8)

[6] = Fertility study in male rats; format: in vivo
[7] = Dedicated QT study in patients with CRPC; format: in vivo, human; conditions: 240 mg once daily
Description: There was no difference greater than 20 ms in the mean QT interval change from baseline, based on the Fridericia correction method, across all timepoints at steady-state.
The maximum mean QTcF change from baseline was 12.4 ms (2-sided 90% upper CI: 16.0 ms).

CYP2C8 = target: T2, CYP2C8 (Homo sapiens, UniProt P10632); assay: Contribution of CYP2C8 in the metabolism of apalutamide; format: in vivo; conditions: estimated
T2 construct: from tissue; host or cells: human subjects, in vivo (clinical pharmacology)
T2 sequence (P10632 1-490): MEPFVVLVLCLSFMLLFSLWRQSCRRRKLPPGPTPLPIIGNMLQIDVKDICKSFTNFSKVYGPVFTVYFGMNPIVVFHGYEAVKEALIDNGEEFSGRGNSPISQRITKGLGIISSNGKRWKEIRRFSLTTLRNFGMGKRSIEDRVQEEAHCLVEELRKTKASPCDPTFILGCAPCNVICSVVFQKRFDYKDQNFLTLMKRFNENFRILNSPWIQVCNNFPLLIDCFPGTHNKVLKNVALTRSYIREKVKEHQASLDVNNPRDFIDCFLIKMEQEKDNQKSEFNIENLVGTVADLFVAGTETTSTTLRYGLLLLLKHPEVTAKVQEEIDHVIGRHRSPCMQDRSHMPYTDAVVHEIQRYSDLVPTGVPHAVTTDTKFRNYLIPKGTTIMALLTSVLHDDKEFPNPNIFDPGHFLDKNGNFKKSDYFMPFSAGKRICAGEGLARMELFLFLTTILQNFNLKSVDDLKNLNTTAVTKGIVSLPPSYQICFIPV

[8] = Drug-drug interaction studies: effect of other medications on apalutamide; format: in vivo, human
[9] = Physicochemical description (ionization, solubility)
Description: The Chemical name is (4-[7-(6-Cyano-5-trifluoromethylpyridin-3-yl)-8-oxo-6-thioxo-5,7-diazaspiro[3.4]oct-5-yl]-2-fluoro-N-methylbenzamide). Apalutamide is a white to slightly yellow powder.

BCRP/OATP1B1 = assay: Drug-drug interaction study, cocktail approach: rosuvastatin; design: species or system human; conditions: in vivo
human CYP2B6 and CYP3A4 = conditions: hepatocytes
LNCaP/AR cells [10] = conditions: literature; cited from earlier work
CYP1A2 and CYP2D6 = assay: In vitro effect on CYP1A2 and CYP2D6; conditions: therapeutically relevant concentrations
CYP2B6 and CYP2C8 = assay: In vitro CYP inhibition: CYP2B6 and CYP2C8
[11] = system: CYP2C9, CYP2C19, and CYP3A4; assay: In vitro CYP inhibition: CYP2C9, CYP2C19, CYP3A4
[12] = Single oral administration of 14C-labeled apalutamide 240 mg (metabolite profile, excretion)

SMILES: CNC(=O)c1ccc(N2C(=S)N(c3cnc(C#N)c(C(F)(F)F)c3)C(=O)C23CCC3)cc1F [apalutamide, 4-[7-(6-cyano-5-trifluoromethylpyridin-3-yl)-8-oxo-6-thioxo-5,7-diazaspiro[3.4]oct-5-yl]-2-fluoro-N-methylbenzamide]
- median time to PSA progression ([1]; PA cohort): 16 weeks
- 12-week PSA declines of >50% or more from baseline (% of patients) ([1]; PA cohort (progressed after abiraterone acetate plus prednisone), 240 mg oral daily): 29%
- 12-week PSA declines of >50% or more from baseline (% of patients) ([1]; TN cohort (treatment-naive metastatic CRPC), 240 mg oral daily): 88%
- median time to PSA progression ([1]; TN cohort, preliminary 12-week period): not reached
- objective response rate (by RECIST) ([1]; TN patients with measurable disease at baseline): 63%
- patients with >50% decline in PSA as compared to baseline ([1]; non-metastatic CRPC, 240 mg oral daily, 12 weeks): 91%
- patients with >50% decline in PSA ([1]; non-metastatic CRPC, 24 weeks): 91%
- patients with >90% decline in PSA ([1]; non-metastatic CRPC, 24 weeks): 55%
- median time to PSA progression ([1]; non-metastatic CRPC, observed time period): not reached
- agonist properties in an in vitro model of CRPC (LNCaP/AR cells [2]; LNCaP/AR cells): no significant agonist properties
- Gene transcription of the androgen-driven genes, PSA and TMPRSS2 (LNCaP/AR cells [2]; in vitro): inhibited
- tumor cell proliferation and apoptosis in vivo [3]: reduce proliferation of CRPC cells as well as increase apoptosis and necrosis
- tumor cell proliferation and apoptosis in vivo ([3]; listed as Apalutamide): decreased tumor cell proliferation and increased apoptosis leading to decreased tumor volume
- tumor growth inhibition and tumor regression ([3]; murine tumor models of CRPC): dose-dependent tumor growth inhibition and tumor regression that were superior to bicalutamide
- clearance ([4]; preclinical): low clearance
- volume of distribution ([4]; preclinical): moderate volume of distribution
- bioavailability ([4]; when dosed with a lipid-based formulation): high bioavailability
- IC50 [5]: > 25 µM
- live fetuses (pre- and/or post-implantation loss) ([6]; 4 weeks of 150 mg/kg/day): reduced number of live fetuses
- dose with decreased sperm concentration and motility, copulation and fertility rates, reduced secondary sex gland and epididymis weights ([6]; 4 weeks of dosing, male rats): > 25 mg/kg/day
- reversibility of effects on male rats ([6]; after 8 weeks from the last administration): reversible
- maximum mean QTcF change from baseline ([7]; 45 patients with CRPC): 12.4 ms
- difference in mean QT interval change from baseline (Fridericia correction) ([7]; all timepoints at steady-state): ≤ 20 ms
- contribution of CYP2C8 in the metabolism (CYP2C8; at steady-state): 40%
- contribution of CYP2C8 in the metabolism (CYP2C8; following single dose): 58%
- increase in AUC of apalutamide ([8]; 240 mg single dose with gemfibrozil): 68%
- decrease in Cmax of apalutamide ([8]; 240 mg single dose with gemfibrozil (strong CYP2C8 inhibitor)): 21%
- AUC of apalutamide ([8]; 240 mg single dose with itraconazole): similar
- decrease in Cmax of apalutamide ([8]; 240 mg single dose with itraconazole (strong CYP3A4 inhibitor)): 22%
- solubility ([9]; aqueous media over a wide range of pH values): practically insoluble
- ionization ([9]; relevant physiological pH condition): not ionizable
- BCRP/OATP1B1 inducer clinically (BCRP/OATP1B1): weak and weak inducer
- impact on Cmax of rosuvastatin (BCRP/OATP1B1): no impact
- CYP3A4 and CYP2B6 induction (human CYP2B6 and CYP3A4): moderate to strong CYP3A4 and CYP2B6 inducers
- agonist activity in the context of AR overexpression (LNCaP/AR cells [10]): lacks the partial agonist activity
- effect on CYP1A2 and CYP2D6 (CYP1A2 and CYP2D6): do not affect
- inhibition of CYP2B6 and CYP2C8 (CYP2B6 and CYP2C8): moderate inhibitors
- inhibition of CYP2C9, CYP2C19, and CYP3A4 [11]: weak inhibitors
- share of the total 14C-AUC in plasma ([12]; single oral 240 mg): 45%
- % of dose in feces as this compound ([12]; up to 70 days): 1.5%
- % of dose in urine as this compound ([12]; up to 70 days): 1.2%
- radioactivity recovered in feces ([12]; up to 70 days): 24%
- radioactivity recovered in urine ([12]; up to 70 days): 65%
- radioactivity recovered ([12]; up to 70 days post-dose): 89%
